The record followed here is patent US10040788B2, “1,3,4-thiadiazole compounds and their use in treating cancer” (AstraZeneca AB, priority 2014, dated 2018).

One assay deals with GLS1 (Homo sapiens (Human), UniProt O94925). The experiment in a line: GLS Enzyme Potency Assay (Glutamate Oxidase/AmplexRed coupled assay). The class given is biochemical. Conditions: 6His tagged GLS protein (amino acids 63-669); geometric mean where repeated. From the text: The following assays were used to measure the effects of the compounds of the present invention: a) GLS Enzyme Potency Assay; b) GLS Cell Potency Assay; c) GLS Cell Proliferation Assay; and d) Mouse Xenograft Model. During the description of the assays, generally: • i. The following abbreviations have been used: CO2=Carbon dioxide; DMEM=Dulbecco's Modified Eagle Medium; DMSO=Dimethyl sulphoxide; EDTA=Ethylenediaminetetraacetic acid; EGTA=Ethylene glycol tetraacetic acid; FCS=Foetal calf serum; h=Hour(s); NBS=Non-binding surface; SDS=Sodium dodecyl sulphate; r.t.=room temperature; TRIS=Tris(Hydroxymethyl)aminomethane. • ii. IC50 values were calculated using a smart fitting model in Genedata. […] Assay a): GLS Enzyme Potency Assay
Sequence of GLS1 (O94925 63-669): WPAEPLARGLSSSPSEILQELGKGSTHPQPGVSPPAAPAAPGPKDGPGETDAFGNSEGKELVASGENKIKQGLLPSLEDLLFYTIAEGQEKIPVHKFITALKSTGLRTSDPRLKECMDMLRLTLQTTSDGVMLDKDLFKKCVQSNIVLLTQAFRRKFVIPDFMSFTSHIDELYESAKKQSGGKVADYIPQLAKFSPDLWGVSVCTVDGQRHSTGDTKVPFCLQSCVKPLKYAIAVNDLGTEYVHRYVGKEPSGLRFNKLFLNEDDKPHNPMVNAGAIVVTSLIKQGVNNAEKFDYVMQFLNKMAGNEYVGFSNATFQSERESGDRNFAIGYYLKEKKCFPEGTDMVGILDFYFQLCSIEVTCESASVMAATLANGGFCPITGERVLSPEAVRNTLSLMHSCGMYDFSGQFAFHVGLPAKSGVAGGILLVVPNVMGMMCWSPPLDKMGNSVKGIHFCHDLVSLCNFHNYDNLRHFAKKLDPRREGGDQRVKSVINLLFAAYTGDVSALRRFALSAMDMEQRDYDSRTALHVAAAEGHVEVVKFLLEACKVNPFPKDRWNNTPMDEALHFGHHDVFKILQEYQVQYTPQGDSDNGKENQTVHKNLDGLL
A Glutamate Oxidase/AmplexRed coupled assay was used to measure the ability of compounds to bind to and inhibit the activity of GLS1 in vitro. […] GLS1 was diluted to 2× working concentration and incubated at r.t. to allow the tetrameric/dimeric forms to reach steady state. Assay measurements were performed in buffer comprising 50 mM TRIS pH 7.8, 100 mM NaPO4, pH 7.8, 0.001% v/v Tween20. […] DMSO concentration was maintained at 2% by back filling with DMSO solution. […] 3 μL of 100 mM glutamine diluted in assay buffer was then added and the reaction incubated at r.t. for 60 minutes. […] An artefact version of the assay where the 6His tagged GLS protein and glutamine were replaced with assay buffer was also used to rule out non specific effects on the assay components.

The next assay has as its target cellular GLS activity (Homo sapiens (Human), UniProt O94925). The experiment in a line: GLS Cell Potency Assay (PC3 coupled assay measuring cellular glutamate depletion). Conditions: PC3 cells, 6 h incubation, cellular glutamate depletion; geometric mean where repeated; read-out: Assay b) GLS Cell Potency Assay IC50. The class given is cell-based. From the text:
(§1) The following assays were used to measure the effects of the compounds of the present invention: a) GLS Enzyme Potency Assay; b) GLS Cell Potency Assay; c) GLS Cell Proliferation Assay; and d) Mouse Xenograft Model. During the description of the assays, generally: • i. The following abbreviations have been used: CO2=Carbon dioxide; DMEM=Dulbecco's Modified Eagle Medium; DMSO=Dimethyl sulphoxide; EDTA=Ethylenediaminetetraacetic acid; EGTA=Ethylene glycol tetraacetic acid; FCS=Foetal calf serum; h=Hour(s); NBS=Non-binding surface; SDS=Sodium dodecyl sulphate; r.t.=room temperature; TRIS=Tris(Hydroxymethyl)aminomethane. • ii. […]
Compounds were assessed for their potential to inhibit cellular GLS activity by use of a PC3 coupled assay measuring cellular glutamate depletion. […] DMSO concentration was maintained at 0.3% by back filling with DMSO solution. PC3 cells were grown in phenol free DMEM, 10% dialyzed FCS, 2 mM glutamine and following dispersal by trypsinisation were plated at 5.6×10^3 cells per well in 40 μl of growth medium directly into the 384 well assay plates containing dispensed compound. After incubation for 6 h at 37° C., 5% CO2 growth media was aspirated and cells lysed in 15 μl of buffer containing 10 mM TRIS pH7.4, 100 mM NaCl, 1 mM EDTA, 1 mM EGTA, 1 mM NaF, 20 mM Na4P2O7, 2 mM Na3VO4, 1% Triton X-100, 10% glycerol, 0.1% SDS and 0.5% deoxycholate.

For a further assay, the system named is NCI-H1703 cells. The experiment in a line: GLS Cell Proliferation Assay (NCI-H1703). The class given is cell-based, human.
Description: as §1
The ability of compounds to inhibit cell growth was measured using a 384 well plate NCI-H1703 cell proliferation assay. NCI-H1703 cells were grown in phenol red free RPMI1640, 10% FCS and 2 mM glutamine and seeded at a density of 750 cells per well in 40 μl of growth medium into clear-bottom 384 well assay plates (Corning product code 3712) and incubated for 24 h at 37° C., 5% CO2. […] DMSO concentration was maintained at 0.3% by back filling with DMSO solution. Plates were incubated for 5 days at 37° C., 5% CO2, Sytox Green and Saponin added to final concentration of 2 μM and 0.25% respectively and incubated for 6 h prior to analysis. Plates were read on an Acumen eX3 (TTP Labtech) using 488 nm excitation and FITC filter set (500-530 nm) for emission. IC50 values were calculated by curve fitting to max inhibition of day zero growth using GeneData software analysis.

The mark [1] stands for this setting: Homo sapiens, 120 h; NCI-H1703 cells, 5 days incubation; geometric mean where repeated; read-out: Assay c) GLS Cell Proliferation Assay.

Like-named read-outs stand apart in the source and are kept apart here.

Sequence of cellular GLS activity (O94925 55-669): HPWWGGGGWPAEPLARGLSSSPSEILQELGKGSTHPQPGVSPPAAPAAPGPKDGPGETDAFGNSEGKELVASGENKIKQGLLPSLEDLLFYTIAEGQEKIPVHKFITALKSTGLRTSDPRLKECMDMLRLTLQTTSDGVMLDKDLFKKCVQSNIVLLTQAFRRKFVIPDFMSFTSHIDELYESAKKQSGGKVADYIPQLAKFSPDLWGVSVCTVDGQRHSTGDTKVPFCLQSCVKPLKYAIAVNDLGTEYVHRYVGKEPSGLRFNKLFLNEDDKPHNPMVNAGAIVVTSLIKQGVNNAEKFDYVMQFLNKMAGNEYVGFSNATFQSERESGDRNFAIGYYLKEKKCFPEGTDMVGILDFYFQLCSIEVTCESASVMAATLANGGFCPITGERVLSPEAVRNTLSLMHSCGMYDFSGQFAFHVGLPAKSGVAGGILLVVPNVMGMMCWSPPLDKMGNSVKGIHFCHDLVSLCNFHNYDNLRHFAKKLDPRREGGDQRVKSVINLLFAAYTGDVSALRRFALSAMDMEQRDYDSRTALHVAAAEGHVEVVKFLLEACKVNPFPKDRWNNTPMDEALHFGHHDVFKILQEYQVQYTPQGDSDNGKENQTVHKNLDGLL

`CO[C@H](C(=O)Nc1nnc(N[C@@H]2CCN(c3nccnn3)C2)s1)c1cccc(OC(F)F)c1` [19(a), (2S)-2-[3-(difluoromethoxy)phenyl]-2-methoxy-N-[5-[[(3R)-1-(1,2,4-triazin-3-yl)pyrrolidin-3-yl]amino]-1,3,4-thiadiazol-2-yl]acetamide]: the IC50 turned out to be 85.1 nM on GLS1; 2.54 nM at cellular GLS activity; 16.6 nM in the assay with NCI-H1703 cells (NCI-H1703 cells, 5 days incubation; geometric mean where repeated; read-out: Assay c) GLS Cell Proliferation Assay).

Regarding `CO[C@@H](C(=O)Nc1nnc(N[C@@H]2CCN(c3nccnn3)C2)s1)c1cccc(OC(F)F)c1` [19(b), (2R)-2-[3-(difluoromethoxy)phenyl]-2-methoxy-N-[5-[[(3R)-1-(1,2,4-triazin-3-yl)pyrrolidin-3-yl]amino]-1,3,4-thiadiazol-2-yl]acetamide], the IC50 is 519 nM against GLS1 and 37.4 nM at cellular GLS activity.

`COc1cccc([C@H](OC)C(=O)Nc2nnc(N[C@@H]3CCN(c4cncnn4)C3)s2)c1` [21(a), (2S)-2-methoxy-2-(3-methoxyphenyl)-N-[5-[[(3R)-1-(1,2,4-triazin-6-yl)pyrrolidin-3-yl]amino]-1,3,4-thiadiazol-2-yl]acetamide]: the IC50 at cellular GLS activity was determined as 15.7 nM; with NCI-H1703 cells (setting [1]), 168 nM.

In the case of `CCO[C@@H](C(=O)Nc1nnc(N[C@@H]2CCN(c3cccnn3)C2)s1)c1ccc(OC)cc1` [28(b), (2R)-2-ethoxy-2-(4-methoxyphenyl)-N-[5-[[(3R)-1-pyridazin-3-ylpyrrolidin-3-yl]amino]-1,3,4-thiadiazol-2-yl]acetamide], the IC50 in the assay on NCI-H1703 cells (setting [1]) was determined as 151 nM.

In the case of `CCO[C@H](C(=O)Nc1nnc(N[C@@H]2CCN(c3cccnn3)C2)s1)c1cccc(OC)c1` [30(a), (2S)-2-ethoxy-2-(3-methoxyphenyl)-N-[5-[[(3R)-1-pyridazin-3-ylpyrrolidin-3-yl]amino]-1,3,4-thiadiazol-2-yl]acetamide], in the assay with NCI-H1703 cells (setting [1]), the IC50 was determined as 71.6 nM.

In the case of `CCO[C@@H](C(=O)Nc1nnc(N[C@@H]2CCN(c3cccnn3)C2)s1)c1cccc(OC)c1` [30(b), (2R)-2-ethoxy-2-(3-methoxyphenyl)-N-[5-[[(3R)-1-pyridazin-3-ylpyrrolidin-3-yl]amino]-1,3,4-thiadiazol-2-yl]acetamide], the IC50 in the assay on NCI-H1703 cells (setting [1]) worked out at 2.01 nM.

For the compound `CO[C@H](C(=O)Nc1nnc(N[C@@H]2CCN(c3nccnn3)C2)s1)c1ccccc1` [Example 1(a), (2S)-2-Methoxy-2-phenyl-N-[5-[[(3R)-1-(1,2,4-triazin-3-yl)pyrrolidin-3-yl]amino]-1,3,4-thiadiazol-2-yl]acetamide], the IC50 with NCI-H1703 cells (setting [1]) was 53.5 nM.

Regarding `CO[C@@H](C(=O)Nc1nnc(N[C@@H]2CCN(c3nccnn3)C2)s1)c1ccccc1` [Example 1(b), (2R)-2-Methoxy-2-phenyl-N-[5-[[(3R)-1-(1,2,4-triazin-3-yl)pyrrolidin-3-yl]amino]-1,3,4-thiadiazol-2-yl]acetamide], in the assay on NCI-H1703 cells (setting [1]), the IC50 was determined as 2240 nM.

For `CO[C@@H](C(=O)Nc1nnc(N[C@@H]2CCN(c3cccnn3)C2)s1)c1ccccc1` [Example 2(b), (2R)-2-Methoxy-2-phenyl-N-[5-[[(3R)-1-pyridazin-3-ylpyrrolidin-3-yl]amino]-1,3,4-thiadiazol-2-yl]acetamide], the IC50 in the assay on NCI-H1703 cells (setting [1]) came to 179 nM.

For `CO[C@H](C(=O)Nc1nnc(N[C@@H]2CCN(c3cccnn3)C2)s1)c1cccc(OC(F)F)c1` [Example 7(a), (2S)-2-[3-(Difluoromethoxy)phenyl]-2-methoxy-N-[5-[[(3R)-1-pyridazin-3-ylpyrrolidin-3-yl]amino]-1,3,4-thiadiazol-2-yl]acetamide], the IC50 in the assay on NCI-H1703 cells (setting [1]) is 2.23 nM.

In the case of `CO[C@@H](C(=O)Nc1nnc(N[C@@H]2CCN(c3cccnn3)C2)s1)c1cccc(OC(F)F)c1` [Example 7(b), (2R)-2-[3-(Difluoromethoxy)phenyl]-2-methoxy-N-[5-[[(3R)-1-pyridazin-3-ylpyrrolidin-3-yl]amino]-1,3,4-thiadiazol-2-yl]acetamide], in the assay with NCI-H1703 cells (setting [1]), the IC50 is 6.94 nM.

Consider `CO[C@H](C(=O)Nc1nnc(N[C@@H]2CCN(c3nccnn3)C2)s1)c1cccc(OC(F)(F)F)c1` [Example 8(a), (2S)-2-Methoxy-N-[5-[[(3R)-1-(1,2,4-triazin-3-yl)pyrrolidin-3-yl]amino]-1,3,4-thiadiazol-2-yl]-2-[3-(trifluoromethoxy)phenyl]acetamide], for which the IC50 in the assay on NCI-H1703 cells (setting [1]) was found to be 5.04 nM.

On to `CO[C@@H](C(=O)Nc1nnc(N[C@@H]2CCN(c3nccnn3)C2)s1)c1cccc(OC(F)(F)F)c1` [Example 8(b), (2R)-2-Methoxy-N-[5-[[(3R)-1-(1,2,4-triazin-3-yl)pyrrolidin-3-yl]amino]-1,3,4-thiadiazol-2-yl]-2-[3-(trifluoromethoxy)phenyl]acetamide], for which, in the assay with NCI-H1703 cells (setting [1]), the IC50 was 36.8 nM.

`CCO[C@H](C(=O)Nc1nnc(N[C@@H]2CCN(c3cccnn3)C2)s1)c1ccccc1` [Example 10(a), (2S)-2-Ethoxy-2-phenyl-N-[5-[[(3R)-1-pyridazin-3-ylpyrrolidin-3-yl]amino]-1,3,4-thiadiazol-2-yl]acetamide]: the results for the IC50 on cellular GLS activity and in the assay with NCI-H1703 cells (setting [1]) were 0.91 nM and 10.9 nM, respectively.

For `CO[C@H](C(=O)Nc1nnc(N[C@@H]2CCN(c3cccnn3)C2)s1)c1ccc(F)cc1` [Example 12(a), (2S)-2-(4-Fluorophenyl)-2-methoxy-N-[5-[[(3R)-1-pyridazin-3-ylpyrrolidin-3-yl]amino]-1,3,4-thiadiazol-2-yl]acetamide], the IC50 in the assay with NCI-H1703 cells (setting [1]) was 13.5 nM.

For the compound `CO[C@@H](C(=O)Nc1nnc(N[C@@H]2CCN(c3cccnn3)C2)s1)c1ccc(F)cc1` [Example 12(b), (2R)-2-(4-Fluorophenyl)-2-methoxy-N-[5-[[(3R)-1-pyridazin-3-ylpyrrolidin-3-yl]amino]-1,3,4-thiadiazol-2-yl]acetamide], the IC50 in the assay with NCI-H1703 cells (setting [1]) came out at 429 nM.

In the case of `CCO[C@H](C(=O)Nc1nnc(N[C@@H]2CCN(c3cccnn3)C2)s1)c1cccc(OC(F)F)c1` [Example 15(a), (2S)-2-[3-(Difluoromethoxy)phenyl]-2-ethoxy-N-[5-[[(3R)-1-pyridazin-3-ylpyrrolidin-3-yl]amino]-1,3,4-thiadiazol-2-yl]acetamide], the IC50 with NCI-H1703 cells (setting [1]) came out at 0.921 nM.

As to `CCO[C@@H](C(=O)Nc1nnc(N[C@@H]2CCN(c3cccnn3)C2)s1)c1cccc(OC(F)F)c1` [Example 15(b), (2R)-2-[3-(Difluoromethoxy)phenyl]-2-ethoxy-N-[5-[[(3R)-1-pyridazin-3-ylpyrrolidin-3-yl]amino]-1,3,4-thiadiazol-2-yl]acetamide], in the assay on NCI-H1703 cells (setting [1]), the IC50 stood at 2.47 nM.

As to `CCO[C@H](C(=O)Nc1nnc(N[C@@H]2CCN(c3cccnn3)C2)s1)c1cccc(OC(F)(F)F)c1` [Example 16(a), (2S)-2-Ethoxy-N-[5-[[(3R)-1-pyridazin-3-ylpyrrolidin-3-yl]amino]-1,3,4-thiadiazol-2-yl]-2-[3-(trifluoromethoxy)phenyl]acetamide], the IC50 in the assay on NCI-H1703 cells (setting [1]) was 1.32 nM.

With `CCO[C@@H](C(=O)Nc1nnc(N[C@@H]2CCN(c3cccnn3)C2)s1)c1cccc(OC(F)(F)F)c1` [Example 16(b), (2R)-2-Ethoxy-N-[5-[[(3R)-1-pyridazin-3-ylpyrrolidin-3-yl]amino]-1,3,4-thiadiazol-2-yl]-2-[3-(trifluoromethoxy)phenyl]acetamide], in the assay with NCI-H1703 cells (setting [1]), the IC50 was found to be 6.38 nM.
